Holding throughout (type): biochemical
One assay deals with PKR(G332S) (Homo sapiens, UniProt P30613, G332S). The experiment in a line: Luminescence Assay Protocol (Kinase Glo Plus), PKR(G332S/with FBP). The following applies: PKRG332S, with FBP; for activation at 1.54 µM: compound 1.54 μM, read-out: C - AC50 LUM KGP FBP % Fold @ 1.54 μM mean; for AC50: gmean, read-out: A - AC50 LUM KGP FBP AC50 μM gmean; for Emax: highest % fold increase at any concentration, read-out: B - AC50 LUM KGP FBP MAX % FOLD mean. An outline of the steps: (§1)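 Enzyme (wt 0.8 nM, R510Q 0.8 nM, G332S 10 nM) was preincubated 30 min at RT with compound and 100 μM PEP in Tris/KCl/MgCl2 buffer, then started with 100 μM ADP, plus 30 μM FBP for G332S. Luminescence was read after 45 min at RT. AC50 came from a four-parameter fit of % fold over DMSO across 42.5 μM–2.2 nM.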
Sequence of PKR(G332S) (P30613 whole entry G332S): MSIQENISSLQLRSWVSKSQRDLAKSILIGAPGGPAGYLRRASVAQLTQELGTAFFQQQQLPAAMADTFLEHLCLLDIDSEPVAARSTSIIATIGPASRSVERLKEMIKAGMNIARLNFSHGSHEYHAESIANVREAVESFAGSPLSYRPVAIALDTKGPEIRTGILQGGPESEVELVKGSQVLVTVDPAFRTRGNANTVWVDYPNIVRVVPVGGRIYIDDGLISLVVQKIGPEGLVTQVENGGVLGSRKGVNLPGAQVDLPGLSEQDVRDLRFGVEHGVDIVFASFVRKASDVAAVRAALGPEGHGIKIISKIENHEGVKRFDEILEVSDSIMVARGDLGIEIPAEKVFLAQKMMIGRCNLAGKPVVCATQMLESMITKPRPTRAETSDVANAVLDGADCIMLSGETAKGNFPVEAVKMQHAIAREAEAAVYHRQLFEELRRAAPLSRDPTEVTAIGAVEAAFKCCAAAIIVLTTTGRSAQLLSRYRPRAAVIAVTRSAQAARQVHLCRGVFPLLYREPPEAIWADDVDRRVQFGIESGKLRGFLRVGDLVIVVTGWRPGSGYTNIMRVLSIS
(Kinase-Glo measures the ATP left after a reaction by luminescence.)

For another assay, the target named is PKR(R510Q) (Homo sapiens, UniProt P30613, R510Q). The experiment in a line: Luminescence Assay Protocol (Kinase Glo Plus), PKR(R510Q/without FBP). To be noted: PKRR510Q, without FBP; for activation at 1.54 µM: compound 1.54 μM, read-out: F - AC50 LUM KGP woFBP % Fold @ 1.54 μM mean; for AC50: gmean, read-out: D - AC50 LUM KGP woFBP AC50 μM gmean; for Emax: highest % fold increase at any concentration, read-out: E - AC50 LUM KGP woFBP MAX % FOLD mean. An outline of the steps:
as §1

The target in a further assay is PKR(wt) (Homo sapiens, UniProt P30613). Nature of the assay: Luminescence Assay Protocol (Kinase Glo Plus), PKR(Wt/without FBP). To be noted: without FBP; for activation at 1.54 µM: compound 1.54 μM, read-out: I - AC50 LUM KGP woFBP % Fold @ 1.54 μM mean; for AC50: gmean, read-out: G - AC50 LUM KGP woFBP AC50 μM gmean; for Emax: highest % fold increase at any concentration, read-out: H - AC50 LUM KGP woFBP MAX % FOLD mean. A digest of the protocol:
as §1

Sequence of PKR(R510Q) (P30613 whole entry R510Q): as the sequence (P30613 whole entry G332S) above, with S332G, R510Q counted along it
Sequence of PKR(wt) (P30613 whole entry): as the sequence (P30613 whole entry G332S) above, with S332G counted along it

Usually AC50 stands for the concentration at which the activity in the assay is half-maximal. `CC(C)(O)[C@@H](C(=O)N1CC2=C(C1)CN(S(=O)(=O)c1ccc(OC(F)F)cc1)C2)c1ccccc1` [Example 28, (S)-1-(5-((4-(difluoromethoxy)phenyl)sulfonyl)-3,4,5,6-tetrahydropyrrolo[3,4-c]pyrrol-2(1H)-yl)-3-hydroxy-3-methyl-2-phenylbutan-1-one]: at PKR(G332S), the activation at 1.54 µM lay within 75 to 250%, the AC50 was at most 0.1 µM and the Emax lay within 75 to 250%. For the same molecule, at PKR(R510Q), the activation at 1.54 µM is 75 to 250%, the AC50 lay in the range of 1 to 40 µM and the Emax lay in the range of 250 to 500%. In addition, at PKR(wt), the activation at 1.54 µM was in the range of 75 to 250%, the AC50 was in the range of 0.1 to 1 µM and the Emax fell in the range of 250 to 500%.
Turning to `O=C([C@H](CO)c1ccccc1)N1CC2=C(C1)CN(S(=O)(=O)c1ccc3ncsc3c1)C2` [Example 29, (S)-1-(5-(benzo[d]thiazol-6-ylsulfonyl)-3,4,5,6-tetrahydropyrrolo[3,4-c]pyrrol-2(1H)-yl)-3-hydroxy-2-phenylpropan-1-one], at PKR(G332S), the activation at 1.54 µM was in the range of 75 to 250%, the AC50 is at most 0.1 µM and the Emax lay within 75 to 250%. For the same molecule, on PKR(R510Q), the activation at 1.54 µM fell in the range of 250 to 500%, the AC50 was at most 0.1 µM and the Emax is 250 to 500%. At PKR(wt), the activation at 1.54 µM fell in the range of 250 to 500%, the AC50 was at most 0.1 µM and the Emax was 250 to 500%.
Consider `O=C([C@@H](CO)c1ccccc1)N1CC2=C(C1)CN(S(=O)(=O)c1ccc3ncsc3c1)C2` [Example 30, (R)-1-(5-(benzo[d]thiazol-6-ylsulfonyl)-3,4,5,6-tetrahydropyrrolo[3,4-c]pyrrol-2(1H)-yl)-3-hydroxy-2-phenylpropan-1-one], for which, on PKR(G332S), the activation at 1.54 µM was in the range of 75 to 250%, the AC50 lay in the range of 0.1 to 1 µM and the Emax lay in the range of 75 to 250%. Further, at PKR(R510Q), the activation at 1.54 µM lay within 250 to 500%, the AC50 fell in the range of 0.1 to 1 µM and the Emax was in the range of 250 to 500%. Moreover, at PKR(wt), the activation at 1.54 µM was 250 to 500%, the AC50 fell in the range of 0.1 to 1 µM and the Emax was in the range of 250 to 500%.
For `O=C([C@H](CO)c1ccccc1)N1CC2=C(C1)CN(S(=O)(=O)c1ccc(OC(F)F)cc1)C2` [Example 31, (S)-1-(5-((4-(difluoromethoxy)phenyl)sulfonyl)-3,4,5,6-tetrahydropyrrolo[3,4-c]pyrrol-2(1H)-yl)-3-hydroxy-2-phenylpropan-1-one], on PKR(G332S), the activation at 1.54 µM is 75 to 250%, the AC50 was at most 0.1 µM and the Emax was in the range of 75 to 250%. On PKR(R510Q), the activation at 1.54 µM was 250 to 500%, the AC50 is at most 0.1 µM and the Emax lay within 250 to 500%. Further, on PKR(wt), the activation at 1.54 µM fell in the range of 250 to 500%, the AC50 was at most 0.1 µM and the Emax was 250 to 500%.
Take `CC1(C)CNc2cc(S(=O)(=O)N3CC4=C(CN(C(=O)[C@H](CO)c5ccccc5)C4)C3)ccc2O1` [Example 32, (S)-1-(5-((2,2-dimethyl-3,4-dihydro-2H-benzo[b][1,4]oxazin-6-yl)sulfonyl)-3,4,5,6-tetrahydropyrrolo[3,4-c]pyrrol-2(1H)-yl)-3-hydroxy-2-phenylpropan-1-one]: the activation at 1.54 µM at PKR(G332S), on PKR(R510Q) and at PKR(wt) was 75 to 250% in each case. In addition, the AC50 was above 40 µM at PKR(G332S), at most 0.1 µM on PKR(R510Q) and at most 0.1 µM at PKR(wt). Moreover, the Emax at PKR(G332S), at PKR(R510Q) and at PKR(wt) was 75 to 250% in each case.
With `O=C([C@H](CO)c1ccccc1)N1CC2=C(C1)CN(S(=O)(=O)c1ccc3c(c1)NCCO3)C2` [Example 35, (S)-1-(5-((3,4-dihydro-2H-benzo[b][1,4]oxazin-6-yl)sulfonyl)-3,4,5,6-tetrahydropyrrolo[3,4-c]pyrrol-2(1H)-yl)-3-hydroxy-2-phenylpropan-1-one], at PKR(G332S), the activation at 1.54 µM fell in the range of 75 to 250%, the AC50 is at most 0.1 µM and the Emax lay in the range of 75 to 250%. Further, on PKR(R510Q), the activation at 1.54 µM lay within 250 to 500%, the AC50 was at most 0.1 µM and the Emax was 250 to 500%. In addition, on PKR(wt), the activation at 1.54 µM lay within 75 to 250%, the AC50 is at most 0.1 µM and the Emax fell in the range of 75 to 250%.
Consider `COCC1(C(=O)N2CC3=C(C2)CN(S(=O)(=O)c2ccc4c(c2)NCCO4)C3)CC1` [Example 36, (5-((3,4-dihydro-2H-benzo[b][1,4]oxazin-6-yl)sulfonyl)-3,4,5,6-tetrahydropyrrolo[3,4-c]pyrrol-2(1H)-yl)(1-(methoxymethyl)cyclopropyl)methanone], for which the activation at 1.54 µM on PKR(G332S), at PKR(R510Q) and at PKR(wt) was 75 to 250% in each case. The AC50 at PKR(G332S) is above 40 µM; on PKR(R510Q), 1 to 40 µM; on PKR(wt), 0.1 to 1 µM. Further, the Emax on PKR(G332S), at PKR(R510Q) and on PKR(wt) was 75 to 250% each time.
In the case of `CC(C)(CO)C(=O)N1CC2=C(C1)CN(S(=O)(=O)c1ccc3c(c1)NCCO3)C2` [Example 37, 1-(5-((3,4-dihydro-2H-benzo[b][1,4]oxazin-6-yl)sulfonyl)-3,4,5,6-tetrahydropyrrolo[3,4-c]pyrrol-2(1H)-yl)-3-hydroxy-2,2-dimethylpropan-1-one], the values for the activation at 1.54 µM at PKR(G332S), at PKR(R510Q) and at PKR(wt) were 75 to 250%, 250 to 500% and 75 to 250%, respectively. The values for the AC50 on PKR(G332S), on PKR(R510Q) and on PKR(wt) were above 40 µM, at most 0.1 µM and 0.1 to 1 µM, respectively. Besides, the Emax lay in the range of 75 to 250% at PKR(G332S), 250 to 500% on PKR(R510Q) and 75 to 250% at PKR(wt).
With `O=C(C1CCOC1)N1CC2=C(C1)CN(S(=O)(=O)c1ccc3c(c1)NCCO3)C2` (stereo not drawn) [Example 39, (5-((3,4-dihydro-2H-benzo[b][1,4]oxazin-6-yl)sulfonyl)-3,4,5,6-tetrahydropyrrolo[3,4-c]pyrrol-2(1H)-yl)(tetrahydrofuran-3-yl)methanone], on PKR(G332S), the activation at 1.54 µM fell in the range of 75 to 250%, the AC50 was at most 0.1 µM and the Emax fell in the range of 75 to 250%. In addition, at PKR(R510Q), the activation at 1.54 µM lay in the range of 250 to 500%, the AC50 is 0.1 to 1 µM and the Emax was 250 to 500%. Moreover, at PKR(wt), the activation at 1.54 µM lay in the range of 250 to 500%, the AC50 lay in the range of 0.1 to 1 µM and the Emax was in the range of 250 to 500%.
As to `O=C(C1COc2ccccc21)N1CC2=C(C1)CN(S(=O)(=O)c1ccc3ncsc3c1)C2` (stereo not drawn) [Example 43, (5-(benzo[d]thiazol-6-ylsulfonyl)-3,4,5,6-tetrahydropyrrolo[3,4-c]pyrrol-2(1H)-yl)(2,3-dihydrobenzofuran-3-yl)methanone], on PKR(G332S), the activation at 1.54 µM lay in the range of 75 to 250%, the AC50 lay in the range of 0.1 to 1 µM and the Emax was 75 to 250%. Moreover, on PKR(R510Q), the activation at 1.54 µM fell in the range of 250 to 500%, the AC50 lay within 1 to 40 µM and the Emax lay in the range of 250 to 500%. At PKR(wt), the activation at 1.54 µM lay within 250 to 500%, the AC50 lay within 0.1 to 1 µM and the Emax lay in the range of 250 to 500%.
